Laboratory results taken from US20120035175A1, “Novel salts as Anti-Inflammatory, Immunomodulatory and Anti-Proliferatory Agents” (4SC AG, priority 2010, published 2012).
Where two headings read alike, the source gives them in different places.

What was measured:
[1] = biological target: T1, recombinant human DHODH (Homo sapiens, UniProt Q02127); test: Inhibition assay of DHODH activity (human enzyme); assay type: biochemical
T1 construct: Prof; M. Löffler, Marburg, Germany (gift)
Protocol: (§1) The standard assay mixture contained 50 μM decyclo ubichinone, 100 μM dihydroorotate, 60 μM 2,6-dichloroindophenol, as well as 20 mU DHODH. The volume activity of the recombinant enzyme used was 30 U/ml. Measurements were conducted in 50 mM TrisHCl (150 mM KCl, 0.1% Triton X-100, pH 8.0) at 30° C. in a final volume of 1 ml. The components were mixed, and the reaction was started by adding dihydroorotate. The course of reaction was followed by spectrophotometrically measuring the decrease in absorption at 600 nm for […].
(§2) Inhibitory studies were conducted in a standard assay with additional variable amounts of inhibitor. […] These investigations were carried out with recombinant human as well as with recombinant murine DHODH provided by Prof. M. Löffler, Marburg, Germany [M. Löffler, Chem. Biol. Interact.

[2] = biological target: T2, recombinant murine DHODH (Mus musculus, UniProt O35435); test: Inhibition assay of DHODH activity (murine enzyme); assay type: biochemical; conditions: class symbols, key in nM
T2 construct: Prof; M. Löffler, Marburg, Germany (gift)
Protocol: as §1, §2

[3] = Dynamic vapor sorption (water uptake); assay type: physicochemical; conditions: for % water uptake at 85% r.h.: about 85% r.h.
Description: DVS (SMS): Surface Measurement Systems Ltd. DVS-1 water vapour sorption analyzer. The sample is placed on a platinum sample pan and allowed to equilibrate at a given relative humidity (r.h.), usually 50% r.h. Then, a pre-defined humidity program was started with a scanning rate of 5% r.h. change per hour. First step: from 50% r.h. to 0% r.h. (in case of a possibly hydrate as starting material 50 to 95% r.h.), second step: from 0% to 95% r.h. (in case of a possibly hydrate as starting material 95 to 0% r.h.)

[4] = Aqueous solubility and pH of the saturated solution; assay type: physicochemical
Protocol: Solubility: Solubility was determined by a stepwise addition of 0.05 mL portions of solvent to a suspension of 10 mg of sample in 0.05 mL of solvent.
The aqueous solubility of the respective compound was determined by HPLC, and the pH of the resulting saturated solution was measured. For each compound tested, a suspension was prepared and equilibrated for 24 hours at 25° C. The suspension was filtered, the filtrate was diluted and analysed by HPLC.

[5] = Long-term stability, 18 months storage, HPLC; assay type: physicochemical
Protocol: HPLC: HPLC was performed with a Dionex UltiMate® 3000 liquid chromatograph comprising a solvent Rack, a vacuum degasser, a binary pump (mikro), a static mixer (500 μl), an autosampler, a 25 μl sample loop, a 100 μl syringe, a column oven and a DAD detector (semimicro measuring cell), which was set up for UV analysis. Data analysis was done with Chromeleon® 6.80 SP3. Compounds were separated at 30° C. on a Phenomenex Onyx™ Monolithic C18 50×2 mm column. The injection volume was 2 μl and the detection wavelength was 305 nm. As mobile phase, a gradient of 0.1% formic acid in HPLC grade water/acetonitrile was used, starting at a concentration of 5% acetonitrile. The starting concentration was held for 1 minute, then the gradient was ramped linearly to 95% acetonitrile over the course of 2 min, held for 0.7 min at 95% acetonitrile, after which it was returned to 5% acetonitrile within 0.1 min and kept constant for 0.7 min to re-equilibrate the column. The mobile phase flow rate was 1.5 ml/min.
The compounds were stored for 18 months at ambient conditions (20-25° C., 30-60% relative humidity) and subsequently analysed by HPLC for purity.

T2 sequence (O35435 whole entry): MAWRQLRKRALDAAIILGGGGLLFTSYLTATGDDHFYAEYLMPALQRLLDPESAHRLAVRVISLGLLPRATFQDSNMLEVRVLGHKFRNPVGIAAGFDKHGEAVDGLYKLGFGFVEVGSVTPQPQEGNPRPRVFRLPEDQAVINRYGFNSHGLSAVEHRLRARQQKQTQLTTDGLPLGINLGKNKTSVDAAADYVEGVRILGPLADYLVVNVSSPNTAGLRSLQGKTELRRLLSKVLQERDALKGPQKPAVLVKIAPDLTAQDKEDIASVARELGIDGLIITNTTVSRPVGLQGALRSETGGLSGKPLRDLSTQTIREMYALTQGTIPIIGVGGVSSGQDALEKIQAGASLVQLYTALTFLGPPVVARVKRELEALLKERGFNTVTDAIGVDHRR
T1 sequence (Q02127 whole entry): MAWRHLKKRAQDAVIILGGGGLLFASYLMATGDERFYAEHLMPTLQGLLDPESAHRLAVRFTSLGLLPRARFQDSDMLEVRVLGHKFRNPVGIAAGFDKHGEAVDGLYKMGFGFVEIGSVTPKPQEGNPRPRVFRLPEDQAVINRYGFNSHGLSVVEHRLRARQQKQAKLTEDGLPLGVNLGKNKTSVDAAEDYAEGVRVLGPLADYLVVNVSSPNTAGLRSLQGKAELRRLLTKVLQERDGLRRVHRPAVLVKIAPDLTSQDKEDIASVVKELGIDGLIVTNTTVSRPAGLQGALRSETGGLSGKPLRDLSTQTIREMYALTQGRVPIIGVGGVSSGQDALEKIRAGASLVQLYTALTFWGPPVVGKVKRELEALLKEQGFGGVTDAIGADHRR

Structure (SMILES)	IC50 [2] [nM]	also measured
O=C(O)C1=C(C(=O)Nc2ccc(OCc3c(F)cccc3Cl)c(Cl)c2)CCC1 [Compound 69, 2-((3-chloro-4-((2-chloro-6-fluorobenzyl)oxy)phenyl)carbamoyl)cyclopent-1-enecarboxylic acid]	< 800	IC50 [1]: < 800 nM
COc1ccc(-c2cc(F)c(NC(=O)C3=C(C(=O)O)CCC3)c(F)c2)c(OC)c1 [Compound 67, 2-((3,5-difluoro-2′,4′-dimethoxy-[1,1′-biphenyl]-4-yl)carbamoyl)cyclopent-1-enecarboxylic acid]	> 1500	–
O=C(O)C1=C(C(=O)Nc2cc(Br)c(OCc3cc(F)ccc3F)c(Br)c2)CCC1 [Compound 24, 2-((3,5-dibromo-4-((2,5-difluorobenzyl)oxy)phenyl)carbamoyl)cyclopent-1-enecarboxylic acid]	800 to 1500	–
O=C(O)C1=C(C(=O)Nc2ccc(-c3cccc(F)c3)cc2F)CCC1 [Compound 27, 2-((3,3′-difluoro-[1,1′-biphenyl]-4-yl)carbamoyl)cyclopent-1-enecarboxylic acid]	> 1500	–
O=C(O)C1=C(C(=O)Nc2c(F)cc(-c3ccccc3F)cc2F)CCC1 [Compound 66, 2-((2′,3,5-trifluoro-[1,1′-biphenyl]-4-yl)carbamoyl)cyclopent-1-enecarboxylic acid]	800 to 1500	–
COc1cccc(-c2ccc(NC(=O)C3=C(C(=O)[O-])CCC3)c(F)c2)c1.COc1cccc(-c2ccc(NC(=O)C3=C(C(=O)[O-])CCC3)c(F)c2)c1.[Mg+2] [Mg salt]	–	% water uptake at 95% r.h. [3]: Ca. 10%; % water uptake at 85% r.h. [3]: Ca. 5%
O=C(O)C1=C(C(=O)Nc2cc(Br)c(OCc3ccc(F)c(F)c3)c(Br)c2)CCC1 [Compound 25, 2-((3,5-dibromo-4-((3,4-difluorobenzyl)oxy)phenyl)carbamoyl)cyclopent-1-enecarboxylic acid]	–	IC50 ([1]; recombinant human DHODH, class symbols, key in nM, read-out: human IC50-Value): < 800 nM
COc1cccc(-c2ccc(NC(=O)C3=C(C(=O)[O-])CCC3)c(F)c2)c1.[K+] [K salt]	–	% water uptake at 95% r.h. [3]: Ca. 1%; % water uptake at 85% r.h. [3]: Ca. 0.5%
COc1ccccc1-c1ccc(NC(=O)C2=C(C(=O)O)CCC2)cc1Cl [Compound 54, 2-((2-chloro-2′-methoxy-[1,1′-biphenyl]-4-yl)carbamoyl)cyclopent-1-enecarboxylic acid]	800 to 1500	–
O=C(O)C1=C(C(=O)Nc2ccc(Oc3ccccc3)cc2)CCC1 [Compound 50, 2-((4-phenoxyphenyl)carbamoyl)cyclopent-1-enecarboxylic acid]	< 800	–
CCOc1cccc(-c2ccc(NC(=O)C3=C(C(=O)O)CCC3)c(F)c2)c1 [Compound 46, 2-((3′-ethoxy-3-fluoro-[1,1′-biphenyl]-4-yl)carbamoyl)cyclopent-1-enecarboxylic acid]	> 1500	–
COc1ccccc1-c1ccc(NC(=O)C2=C(C(=O)O)CCC2)c(Cl)c1 [Compound 53, 2-((3-chloro-2′-methoxy-[1,1′-biphenyl]-4-yl)carbamoyl)cyclopent-1-enecarboxylic acid]	800 to 1500	–
Cc1cccc(Sc2ccc(NC(=O)C3=C(C(=O)O)CCC3)cc2)c1 [Compound 42, 2-((4-(m-tolylthio)phenyl)carbamoyl)cyclopent-1-enecarboxylic acid]	< 800	–
COc1ccccc1-c1ccc(NC(=O)C2=C(C(=O)O)CCC2)c(C)c1 [Compound 57, 2-((2′-methoxy-3-methyl-[1,1′-biphenyl]-4-yl)carbamoyl)cyclopent-1-enecarboxylic acid]	800 to 1500	–
O=C(O)C1=C(C(=O)Nc2ccc(OCc3ccccc3C(F)(F)F)c(Cl)c2)CCC1 [Compound 68, 2-((3-chloro-4-((2-(trifluoromethyl)benzyl)oxy)phenyl)carbamoyl)cyclopent-1-enecarboxylic acid]	> 1500	–
[O-][n+]1ccccc1[S-].[O-][n+]1ccccc1[S-].[Zn+2] [Zinc salt]	–	Solubility ([4]; aqueous, suspension equilibrated for 24 hours at 25° C.): 950 µg/mL; pH ([4]; pH of the resulting saturated solution): 6.3; % water uptake at 95% r.h. [3]: 5.5%; % water uptake at 85% r.h. [3]: 4%
COc1cccc(-c2ccc(NC(=O)C3=C(C(=O)O)CCC3)c(F)c2)c1.N=C(N)NCCCC(N)C(=O)O [L-Arginine salt]	–	% water uptake at 95% r.h. [3]: >12%; % water uptake at 95% r.h. ([3]; listed as arginine salt): > 12%; % water uptake at 85% r.h. [3]: 1.7%
O=C(O)C1=C(C(=O)Nc2ccc(-c3ccccc3Cl)cc2)CCC1 [Compound 14, 2-((2′-chloro-[1,1′-biphenyl]-4-yl)carbamoyl)cyclopent-1-enecarboxylic acid]	> 1500	–
COc1ccccc1-c1c(F)c(F)c(NC(=O)C2=C(C(=O)O)CCC2)c(F)c1F [Compound 56, 2-((2,3,5,6-tetrafluoro-2′-methoxy-[1,1′-biphenyl]-4-yl)carbamoyl)cyclopent-1-enecarboxylic acid]	< 800	–
CCNCC.COc1cccc(-c2ccc(NC(=O)C3=C(C(=O)O)CCC3)c(F)c2)c1 [Diethylamine (DEA) salt]	–	Peak area ([5]; HPLC after 18 months storage at ambient conditions (20-25° C., 30-60% relative humidity)): >99%; Occurrence of hydrolysis product in HPLC after 18 months storage ([5]; ambient conditions (20-25° C., 30-60% relative humidity), LOD for hydrolysis product: 0.1 μg/ml): Below LOD*; % water uptake at 95% r.h. [3]: 0.5%; % water uptake at 85% r.h. [3]: 0.2%
COc1cccc(-c2ccc(NC(=O)C3=C(C(=O)[O-])CCC3)c(F)c2)c1.[Na+] [Na salt]	–	% water uptake at 95% r.h. [3]: Ca. 7.5%; % water uptake at 85% r.h. [3]: Ca. 5%
CCOc1cccc(-c2cc(F)c(NC(=O)C3=C(C(=O)O)CCC3)c(F)c2)c1 [Compound 63, 2-((3′-ethoxy-3,5-difluoro-[1,1′-biphenyl]-4-yl)carbamoyl)cyclopent-1-enecarboxylic acid]	800 to 1500	–
O=C(O)C1=C(C(=O)Nc2ccc(OCc3ccccc3)c(Cl)c2)CCC1 [Compound 72, 2-((4-(benzyloxy)-3-chlorophenyl)carbamoyl)cyclopent-1-enecarboxylic acid]	800 to 1500	–
COc1ccc(-c2ccc(NC(=O)C3=C(C(=O)O)CCC3)cc2Cl)cc1 [Compound 19, 2-((2-chloro-4′-methoxy-[1,1′-biphenyl]-4-yl)carbamoyl)cyclopent-1-enecarboxylic acid]	< 800	–
O=C(O)C1=C(C(=O)Nc2ccc(-c3ccccc3F)cc2)CCC1 [Compound 13, 2-((2′-fluoro-[1,1′-biphenyl]-4-yl)carbamoyl)cyclopent-1-enecarboxylic acid]	> 1500	–
O=C(O)C1=C(C(=O)Nc2ccc(-c3ccccc3Cl)cc2)CSC1 [Compound 41, 4-((2′-chloro-[1,1′-biphenyl]-4-yl)carbamoyl)-2,5-dihydrothiophene-3-carboxylic acid]	> 1500	–
COc1ccccc1-c1cc(Cl)c(NC(=O)C2=C(C(=O)O)CCC2)c(Cl)c1 [Compound 58, 2-((3,5-dichloro-2′-methoxy-[1,1′-biphenyl]-4-yl)carbamoyl)cyclopent-1-enecarboxylic acid]	800 to 1500	–
O=C(O)C1=C(C(=O)Nc2cc(Br)c(OCc3ccccc3)c(Br)c2)CSC1 [Compound 29, 4-((4-(benzyloxy)-3,5-dibromophenyl)carbamoyl)-2,5-dihydrothiophene-3-carboxylic acid]	> 1500	–
CCOc1ccccc1-c1cc(F)c(NC(=O)C2=C(C(=O)O)CCC2)c(F)c1 [Compound 62, 2-((2′-ethoxy-3,5-difluoro-[1,1′-biphenyl]-4-yl)carbamoyl)cyclopent-1-enecarboxylic acid]	800 to 1500	–
O=C(O)C1=C(C(=O)Nc2ccc(OCc3ccccc3F)c(Cl)c2)CCC1 [Compound 74, 2-((3-chloro-4-((2-fluorobenzyl)oxy)phenyl)carbamoyl)cyclopent-1-enecarboxylic acid]	< 800	–
